Results: patent publication US20160058881A1, “PRODRUGS WITH PROLONGED ACTION” (INDIANA UNIVERSITY RESEARCH AND TECHNOLOGY CORPORATION, priority 2013, published 2016)
Read-outs that look alike come from different tables or passages of the source. Starred links: 1 amine or outer side, 2 acyl side, 3 side chain; linkers in the order of their positions; H or OH if unused. Non-standard residues stand in square brackets, D forms with d. Residues, ends and D or L forms follow the SMILES beside them. Groups on a side chain read outwards from the residue. No end group written: not given here. *: point of attachment. Docosanoyl = CCCCCCCCCCCCCCCCCCCCCC(=O)*; Phe(4-NH2) = Nc1ccc(C[C@H](N)C(=O)O)cc1; Arachidoyl = CCCCCCCCCCCCCCCCCCCC(=O)*; d(εLys) = N[C@H](CCCCN[*:1])C(=O)[*:2]; Aib = CC(C)(N)C(=O)O; Sar = CNCC(=O)O

Tests used:
glucagon receptor [1] = molecular target: glucagon receptor (UniProt P47871); test: cell-based or functional assay
Sequence of glucagon receptor (P47871 26-477 limits assumed): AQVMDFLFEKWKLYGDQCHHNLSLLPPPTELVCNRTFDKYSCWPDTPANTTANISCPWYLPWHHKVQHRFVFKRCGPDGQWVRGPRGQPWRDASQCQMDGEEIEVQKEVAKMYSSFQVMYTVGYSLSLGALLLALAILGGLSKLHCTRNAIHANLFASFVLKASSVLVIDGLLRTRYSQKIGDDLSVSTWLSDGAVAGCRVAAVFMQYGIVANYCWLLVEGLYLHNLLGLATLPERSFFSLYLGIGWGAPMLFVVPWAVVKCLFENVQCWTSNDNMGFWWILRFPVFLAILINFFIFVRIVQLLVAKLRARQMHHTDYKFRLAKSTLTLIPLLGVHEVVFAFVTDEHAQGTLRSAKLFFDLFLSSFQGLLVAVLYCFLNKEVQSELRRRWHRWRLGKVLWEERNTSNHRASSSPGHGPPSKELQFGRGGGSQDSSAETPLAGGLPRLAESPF

glucagon receptor [2] = molecular target: glucagon receptor (UniProt P47871); test: cell-based or functional assay; remark: listed apart in the source
[3] = format: in vitro ADME
Experimental: The peptides described above were incubated in PBS buffer or serum at 37° C. for up to 8 days. Samples were collected at different time points for PBS and plasma and half-life was determined. […] The peptides described above were incubated in PBS buffer or serum at 37° C. for up to 8 days. Samples were collected at different time points for PBS and plasma and half-life was determined. […] The shorter half-life seen when the acylated dipeptide was linked to […] might be due to a conformational change that facilitates cleavage when bound to plasma or alternatively to reduced detection of the acylated form when bound to plasma.

[4] = format: physicochemical; settings: buffer
Experimental: Preliminary analyses were performed with these crude peptides for an approximation of their relative conversion rates in Phosphate Buffered Saline (PBS) buffer (pH, 7.2) using high performance liquid chromatography (HPLC) and MALDI analysis. The crude peptide samples were dissolved in the PBS buffer at a concentration of 1 mg/mL. […] Aliquots of 100 μL were drawn out at various time intervals, cooled to room temperature and analyzed by HPLC. […] The peptides described above were incubated in PBS buffer or serum at 37° C. for up to 8 days. Samples were collected at different time points for PBS and plasma and half-life was determined. […] The peptides described above were incubated in PBS buffer or serum at 37° C. for up to 8 days. Samples were collected at different time points for PBS and plasma and half-life was determined. […] The shorter half-life seen when the acylated dipeptide was linked to […] might be due to a conformational change that facilitates cleavage when bound to plasma or alternatively to reduced detection of the acylated form when bound to plasma.

GLP-1 receptor [5] = molecular target: T1, GLP-1 receptor (Homo sapiens, UniProt P43220); test: cell-based or functional assay
Target sequence in this assay (P43220 24-463 limits assumed): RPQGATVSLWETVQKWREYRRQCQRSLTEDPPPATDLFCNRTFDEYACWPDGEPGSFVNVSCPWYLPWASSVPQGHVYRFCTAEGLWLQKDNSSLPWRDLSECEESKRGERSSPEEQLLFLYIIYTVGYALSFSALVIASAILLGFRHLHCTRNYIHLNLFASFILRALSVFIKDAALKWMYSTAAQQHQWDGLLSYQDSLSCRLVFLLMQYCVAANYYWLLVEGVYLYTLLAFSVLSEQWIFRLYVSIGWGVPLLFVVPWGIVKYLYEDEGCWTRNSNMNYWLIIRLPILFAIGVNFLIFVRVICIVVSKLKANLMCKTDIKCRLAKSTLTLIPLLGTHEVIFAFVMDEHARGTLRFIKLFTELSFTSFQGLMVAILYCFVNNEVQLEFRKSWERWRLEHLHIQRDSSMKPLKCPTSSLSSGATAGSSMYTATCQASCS

GLP-1 receptor [6] = molecular target: T1, GLP-1 receptor; test: GLP-receptor luciferase bioassay of samples incubated in 20% human plasma (restored activity); format: cell-based; settings: 37° C.
Experimental: To explore the possible formation of DKP and simultaneous regeneration of the parent drug, the above-mentioned peptides were incubated in 20% human plasma at 37° C. for approximately 5 days. Samples were collected at different time points (0, 1, 2, and 5 days).
Target sequence in this assay (P43220 24-463): as the sequence (P43220 24-463 limits assumed) above

GLP-1 receptor [7] = molecular target: GLP-1 receptor (UniProt P43220 24-463, limits assumed); test: cell-based or functional assay
GIP receptor = molecular target: T2, GIP receptor (UniProt P48546 22-466); test: cell-based or functional assay
T2 sequence (looked up): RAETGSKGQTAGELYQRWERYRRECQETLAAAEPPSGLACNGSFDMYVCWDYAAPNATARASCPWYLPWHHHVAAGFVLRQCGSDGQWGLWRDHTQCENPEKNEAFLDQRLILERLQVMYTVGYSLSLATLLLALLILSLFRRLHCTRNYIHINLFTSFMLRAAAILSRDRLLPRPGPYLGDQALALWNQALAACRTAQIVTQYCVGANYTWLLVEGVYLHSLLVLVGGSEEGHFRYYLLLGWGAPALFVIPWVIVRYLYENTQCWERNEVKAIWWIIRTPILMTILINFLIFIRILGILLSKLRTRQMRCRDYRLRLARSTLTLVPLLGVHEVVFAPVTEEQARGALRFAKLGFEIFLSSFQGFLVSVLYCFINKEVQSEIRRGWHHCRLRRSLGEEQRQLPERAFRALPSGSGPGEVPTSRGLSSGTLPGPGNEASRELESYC

## E9, K12, E16 glucagon(6-39) Cex peptide (Table 1 peptide 1)
Glucagon receptor [1]
  Glu IC50: 762 nM
Glucagon receptor [2]
  Glucagon IC50: 762 nM

## CCCCCCCCCCCCCCCCCC(=O)NCCCC[C@@H](N)C(=O)N(C)CC(=O)NCCCC[C@H](NC(=O)[C@H](CC(=O)O)NC(=O)[C@H](CO)NC(=O)[C@@H](NC(=O)[C@H](Cc1ccccc1)NC(=O)[C@@H](NC(=O)CNC(=O)[C@H](CCC(=O)O)NC(=O)C(C)(C)NC(=O)[C@@H](N)Cc1ccccc1)[C@@H](C)O)[C@@H](C)O)C(=O)N[C@@H](CO)C(=O)N[C@H](C(=O)N[C@@H](Cc1ccc(O)cc1)C(=O)N[C@@H](CC(C)C)C(=O)N[C@@H](CC(=O)O)C(=O)N[C@@H](CCCCN)C(=O)N[C@@H](CCC(N)=O)C(=O)N[C@@H](C)C(=O)N[C@@H](C)C(=O)NC(C)(C)C(=O)N[C@@H](CCC(=O)O)C(=O)N[C@@H](Cc1ccccc1)C(=O)N[C@H](C(=O)N[C@@H](CC(N)=O)C(=O)N[C@@H](Cc1c[nH]c2ccccc12)C(=O)N[C@@H](CC(C)C)C(=O)N[C@@H](CC(C)C)C(=O)N[C@@H](C)C(=O)NCC(=O)NCC(=O)N1CCC[C@H]1C(=O)N[C@@H](CO)C(=O)N[C@@H](CO)C(=O)NCC(=O)N[C@@H](C)C(=O)N1CCC[C@H]1C(=O)N1CCC[C@H]1C(=O)N1CCC[C@H]1C(=O)N[C@@H](CO)C(=O)O)C(C)C)[C@@H](C)CC [Peptide E]
[3]
  half-life: ~168 h
[4]
  half-life: ~168 h

## E9, E16K20(lactam) glucagon(6-39) Cex peptide (Table 1 peptide 3)
Glucagon receptor [1]
  Glu IC50: 42 nM
Glucagon receptor [2]
  Glucagon IC50: 42 nM
GLP-1 receptor [5]
  GLP-1 EC50: 36 nM

## CCCCCCCCCCCCCCCCCCCCCC(=O)NCCCC[C@@H](N)C(=O)N(C)CC(=O)NCCCC[C@H](NC(=O)[C@H](CO)NC(=O)[C@H](Cc1ccc(O)cc1)NC(=O)[C@H](CC(=O)O)NC(=O)[C@H](CO)NC(=O)[C@@H](NC(=O)[C@H](Cc1ccccc1)NC(=O)[C@@H](NC(=O)CNC(=O)[C@H](CCC(=O)O)NC(=O)C(C)(C)NC(=O)[C@@H](N)Cc1ccc(O)cc1)[C@@H](C)O)[C@@H](C)O)C(=O)N[C@@H](Cc1ccc(O)cc1)C(=O)N[C@@H](CC(C)C)C(=O)N[C@@H](CC(=O)O)C(=O)N[C@@H](CCCCN)C(=O)N[C@@H](CCC(N)=O)C(=O)N[C@@H](C)C(=O)N[C@@H](C)C(=O)NC(C)(C)C(=O)N[C@@H](CCC(=O)O)C(=O)N[C@@H](Cc1ccccc1)C(=O)N[C@H](C(=O)N[C@@H](CC(N)=O)C(=O)N[C@@H](Cc1c[nH]c2ccccc12)C(=O)N[C@@H](CC(C)C)C(=O)N[C@@H](CC(C)C)C(=O)N[C@@H](C)C(=O)NCC(=O)NCC(=O)N1CCC[C@H]1C(=O)N[C@@H](CO)C(=O)N[C@@H](CO)C(=O)NCC(=O)N[C@@H](C)C(=O)N1CCC[C@H]1C(=O)N1CCC[C@H]1C(=O)N1CCC[C@H]1C(=O)N[C@@H](CO)C(=O)O)C(C)C [Peptide F]
[3]
  half-life: < 24 h

## CCCCCCCCCCCCCCCCCCCCCC(=O)NCCCC[C@@H](N)C(=O)N(C)CC(=O)NCCCC[C@H](NC(=O)[C@H](CO)NC(=O)[C@@H]1CCCN1C(=O)[C@@H]1CCCN1C(=O)[C@@H]1CCCN1C(=O)[C@H](C)NC(=O)CNC(=O)[C@H](CO)NC(=O)[C@H](CO)NC(=O)[C@@H]1CCCN1C(=O)CNC(=O)CNC(=O)[C@H](C)NC(=O)[C@H](CC(C)C)NC(=O)[C@H](CC(C)C)NC(=O)[C@H](Cc1c[nH]c2ccccc12)NC(=O)[C@H](CC(N)=O)NC(=O)[C@@H](NC(=O)[C@H](Cc1ccccc1)NC(=O)[C@H](CCC(=O)O)NC(=O)C(C)(C)NC(=O)[C@H](C)NC(=O)[C@H](C)NC(=O)[C@H](CCC(N)=O)NC(=O)[C@H](CCCCN)NC(=O)[C@H](CC(=O)O)NC(=O)[C@H](CC(C)C)NC(=O)[C@H](Cc1ccc(O)cc1)NC(=O)[C@@H](NC(=O)[C@H](CO)NC(=O)[C@H](Cc1ccc(O)cc1)NC(=O)[C@H](CC(=O)O)NC(=O)[C@H](CO)NC(=O)[C@@H](NC(=O)[C@H](Cc1ccccc1)NC(=O)[C@@H](NC(=O)CNC(=O)[C@H](CCC(=O)O)NC(=O)C(C)(C)NC(=O)[C@@H](N)Cc1ccc(O)cc1)[C@@H](C)O)[C@@H](C)O)[C@@H](C)CC)C(C)C)C(=O)O [Peptide H]
[3]
  half-life: ~120 h
[4]
  half-life: ~120 h

## [PLA6, E9, K12E16(Lactam)] glucagon(6-39) Cex peptide (Table 1 peptide 5)
Glucagon receptor [1]
  Glu IC50: 72 nM
Glucagon receptor [2]
  Glucagon IC50: 72 nM
GLP-1 receptor [5]
  GLP-1 EC50: 6 nM

## CCCCCCCCCCCCCCCCCCCCCC(=O)NCCCC[C@@H](N)C(=O)N(C)CC(=O)NCCCC[C@H](NC(=O)[C@H](CC(=O)O)NC(=O)[C@H](CC(C)C)NC(=O)[C@H](Cc1ccc(O)cc1)NC(=O)[C@@H](NC(=O)[C@H](CO)NC(=O)[C@H](Cc1ccc(O)cc1)NC(=O)[C@H](CC(=O)O)NC(=O)[C@H](CO)NC(=O)[C@@H](NC(=O)[C@H](Cc1ccccc1)NC(=O)[C@@H](NC(=O)CNC(=O)[C@H](CCC(=O)O)NC(=O)C(C)(C)NC(=O)[C@@H](N)Cc1ccc(O)cc1)[C@@H](C)O)[C@@H](C)O)[C@@H](C)CC)C(=O)N[C@@H](CCC(N)=O)C(=O)N[C@@H](C)C(=O)N[C@@H](C)C(=O)NC(C)(C)C(=O)N[C@@H](CCC(=O)O)C(=O)N[C@@H](Cc1ccccc1)C(=O)N[C@H](C(=O)N[C@@H](CC(N)=O)C(=O)N[C@@H](Cc1c[nH]c2ccccc12)C(=O)N[C@@H](CC(C)C)C(=O)N[C@@H](CC(C)C)C(=O)N[C@@H](C)C(=O)NCC(=O)NCC(=O)N1CCC[C@H]1C(=O)N[C@@H](CO)C(=O)N[C@@H](CO)C(=O)NCC(=O)N[C@@H](C)C(=O)N1CCC[C@H]1C(=O)N1CCC[C@H]1C(=O)N1CCC[C@H]1C(=O)N[C@@H](CO)C(=O)O)C(C)C [Peptide G]
[3]
  half-life: > 168 h
[4]
  half-life: > 168 h

## CCCCCCCCCCCCCCCCCCCC(=O)NCCCC[C@@H](N)C(=O)N(C)CC(=O)Nc1ccc(C[C@H](NC(=O)[C@H](CC(=O)O)NC(=O)[C@H](CO)NC(=O)[C@@H](NC(=O)[C@H](Cc2ccccc2)NC(=O)[C@@H](NC(=O)CNC(=O)[C@H](CCC(=O)O)NC(=O)C(C)(C)NC(=O)[C@@H](N)Cc2ccccc2)[C@@H](C)O)[C@@H](C)O)C(=O)N[C@@H](CO)C(=O)N[C@H](C(=O)N[C@@H](Cc2ccc(O)cc2)C(=O)N[C@@H](CC(C)C)C(=O)N[C@@H](CC(=O)O)C(=O)N[C@@H](CCCCN)C(=O)N[C@@H](CCC(N)=O)C(=O)N[C@@H](C)C(=O)N[C@@H](C)C(=O)NC(C)(C)C(=O)N[C@@H](CCC(=O)O)C(=O)N[C@@H](Cc2ccccc2)C(=O)N[C@H](C(=O)N[C@@H](CC(N)=O)C(=O)N[C@@H](Cc2c[nH]c3ccccc23)C(=O)N[C@@H](CC(C)C)C(=O)N[C@@H](CC(C)C)C(=O)N[C@@H](C)C(=O)NCC(=O)NCC(=O)N2CCC[C@H]2C(=O)N[C@@H](CO)C(=O)N[C@@H](CO)C(=O)NCC(=O)N[C@@H](C)C(=O)N2CCC[C@H]2C(=O)N2CCC[C@H]2C(=O)N2CCC[C@H]2C(=O)N[C@@H](CO)C(N)=O)C(C)C)[C@@H](C)CC)cc1 (H-F[Aib]EGTFTSD[Phe(4-NH2)]([Sar-d(εLys)-Arachidoyl])SIYLDKQAA[Aib]EFVNWLLAGGPSSGAPPPS-NH2; N-terminus and C-terminus assumed)
GLP-1 receptor [6]; 0 d
  Relative activity to GLP-1 standard: 30.9%
  Restored (activity relative to parent peptide): Restored 36%
GLP-1 receptor [6]; 0 to 5 d
  Change of activity over the time points in plasma: Activity Restored
GLP-1 receptor [6]; 1 d
  Relative activity to GLP-1 standard: 37.8%
  Restored (activity relative to parent peptide): Restored 45%
GLP-1 receptor [6]; 5 d
  Relative activity to GLP-1 standard: 96.9%
  Restored (activity relative to parent peptide): Restored 133%
[4]
  half-life: ~24 h

## Y[Aib]EGTFTSDYSIYLDKQAA[Aib]EFVNWLLAGGPSSGAPPPSK([Sar-dK-Docosanoyl])-NH2 [Peptide H with C22-acylated (d)Lysine-sarcosine dipeptide on Lysine at position 40]
GLP-1 receptor [7]
  EC50-GLP, relative activity to GLP-1 standard: 37.1%
GIP receptor
  EC50-GIP, relative activity to GIP standard: 81.6%

## Y[Aib]EGTFTSDYSIYLDK([Sar-dK-C22 acyl])QAA[Aib]EFVNWLLAGGPSSGAPPPS-NH2 [Peptide G with C22-acylated (d)Lysine-sarcosine dipeptide on Lysine at position 16]
GLP-1 receptor [7]
  EC50-GLP, relative activity to GLP-1 standard: 24.7%
GIP receptor
  EC50-GIP, relative activity to GIP standard: 58.5%

## Y[Aib]EGTFTSDYSK([Sar-dK-C22 acyl])YLDKQAA[Aib]EFVNWLLAGGPSSGAPPPS-NH2 [Peptide F of Example 8 with C22-acylated (d)Lysine-sarcosine dipeptide on Lysine at position 12]
GLP-1 receptor [7]
  EC50-GLP, relative activity to GLP-1 standard: 17.4%
GIP receptor
  EC50-GIP, relative activity to GIP standard: 30.2%
